This assay deals with Sphingosine 1-phosphate receptor 3 (Homo sapiens) (UniProt Q99500). The assay is described as follows: blockade of S1P-driven S1P3 signaling – cell-based, dose response (AID 484). The settings on record: S1P3-expressing cells, antagonist inhibition of S1P response.

Molecules are shown by their SMILES. Calls of active or inactive are those of the source. No rule for the calls is given here.

Sphingosine 1-phosphate receptor 3 (Homo sapiens), sequence (Q99500 whole entry, looked up): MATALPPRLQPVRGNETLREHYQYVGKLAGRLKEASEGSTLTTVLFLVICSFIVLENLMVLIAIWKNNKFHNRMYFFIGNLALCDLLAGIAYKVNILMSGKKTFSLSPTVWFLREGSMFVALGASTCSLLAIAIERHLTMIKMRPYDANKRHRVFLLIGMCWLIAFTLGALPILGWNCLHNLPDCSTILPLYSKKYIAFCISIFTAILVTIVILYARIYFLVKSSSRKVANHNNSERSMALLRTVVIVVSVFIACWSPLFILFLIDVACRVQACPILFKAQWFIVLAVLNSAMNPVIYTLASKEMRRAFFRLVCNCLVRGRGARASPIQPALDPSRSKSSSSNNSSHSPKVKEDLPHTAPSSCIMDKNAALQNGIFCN

Regarding `Cc1ccc(S(=O)(=O)N2CC(=NO)C2)cc1`, the IC50 was > 49.8 µM (inactive).
In the case of `COc1ccc(CC2C(=O)NC(=O)N(c3ccccc3)C2=O)c(OC)c1` (stereo unspecified), the IC50 is > 49.8 µM (inactive).
On to `COc1cccc(N2C(=O)C(CC(=O)Nc3ccc(F)cc3)N(C3CCCCC3)C2=O)c1` (stereo unspecified), for which the IC50 was > 49.8 µM (inactive).
With `N#CC1=C(N)Oc2cc3c(cc2C1c1ccc(Cl)cc1)OCO3` (stereo unspecified) the entry was “inactive”; with `CC(=O)C1=C(C)Nc2ncnn2C1c1ccc(Cl)cc1` (stereo unspecified), > 49.8 µM (inactive); with `CC1(C)CC(=O)CC(=Nc2ccc(C(=O)O)cc2)C1`, > 49.8 µM (inactive).
Next, `O/C(=C\Sc1nnc(Cc2ccccc2)o1)c1ccc(Br)cc1`: > 49.8 µM (inactive); `CN1CCN(C(=O)OC2c3nccnc3C(=O)N2c2ccc(Cl)cn2)CC1` (stereo unspecified): > 49.8 µM (inactive).
Next, `COC(=O)C1=C(N)Oc2cc(N(C)C)ccc2C1c1ccccc1OC` (stereo unspecified): > 16.6 µM (inactive).
Take `COc1ccc(OC)c(C2C(C(C)=O)=C(O)C(=O)N2CCC(=O)O)c1` (stereo unspecified): the IC50 was > 49.8 µM (inactive).
For `COC(=O)C1=C(N)Oc2cc(C)n(C)c(=O)c2C1c1ccc(Cl)cc1` (stereo unspecified), the IC50 is > 49.8 µM (inactive).

The record behind these values is PubChem BioAssay AID484 (The Scripps Research Institute Molecular Screening Center, 2006).
